Literature values as cited in patent US20230000917A1, “TREATMENT OF HEPATITIS B VIRUS (HBV) INFECTION” (UCL BUSINESS LTD, priority 2019, published 2023).

Tests used:
[1] = test system: macrophage foam cell formation and atherosclerosis progression; details: oral administration, animal models
[2] = in vivo
[3] = in vivo; remark: listed apart in the source

oral bioavailability [2]	Structure (SMILES)	macrophage foam cell formation and atherosclerosis progression [1]	plasma VLDL-cholesterol [3]	plasma total triglyceride [3]
	CSc1cc(C)nc(SC)c1NC(=O)CN1CCN(CCSc2nc3ccccc3[nH]2)CC1.Cl.Cl [K604, 4-[2-(1H-Benzimidazol-2-ylthio)ethyl]-N-[6-methyl-2,4-bis(methylthio)-3-pyridinyl]-1-piperazineacetamide dihydrochloride]	promising results		
orally bioavailable	CC(C)c1cc(C(C)C)c(CC(=O)NS(=O)(=O)Oc2c(C(C)C)cccc2C(C)C)c(C(C)C)c1 [Avasimibe]		significantly reduce	significantly reduce
